From ChEMBL document CHEMBL6127017, “Regulation of exercise ability and glycolipid metabolism by synthetic SR9009 analogues as new REV-ERB-α agonists” (Bioorg Med Chem, 2024)

Legend:
[1] = Cytotoxicity against MDCK cells; assay type: toxicity, cell-based, Canis lupus familiaris; conditions: dog, read-out: TC50 (the source's name)
HEK293 = assay: Agonist activity at Flag-tagged REV-ERBalpha (unknown origin) expressed in HEK293 cells co-expressing BMAL1 (unknown origin) assessed as relative strength index by measuring ratio of inhibitory rate of BMAL1 incubated for 24 hrs by Dual Glo-Luciferase assay relative to SR9009; assay type: cell-based; conditions: Homo sapiens
Mus musculus [2] = assay: Effect on exercise tolerance in high-fat diet-induced obese C57BL/6 mouse assessed as total running time at 200 mg/kg, IG for 7 days (reference value: 2954.50 sec); assay type: functional; conditions: time 7 day
Mus musculus [3] = assay: Effect on exercise tolerance in high-fat diet-induced obese C57BL/6 mouse assessed as total running distance at 200 mg/kg, IG for 7 days; assay type: functional; conditions: time 7 day
[4] = Agonist activity at Flag-tagged REV-ERBalpha (unknown origin) expressed in HEK293 cells co-expressing BMAL1 (unknown origin) inhibition of BMAL1 incubated for 24 hrs by Dual Glo-Luciferase assay; assay type: cell-based; conditions: Homo sapiens, HEK293, 24 h
Mus musculus [5] = assay: Effect on blood lipid level in high-fat diet-induced obese C57BL/6 mouse assessed as decrease in blood glucose level at 200 mg/kg, IG for 7 days (reference value: 10.77 mmol/L); assay type: functional; conditions: time 7 day
[6] = Metabolic stability in human liver microsomes assessed as compound remaining at 1 uM measured immediately in presence of NADPH/UDPGA by LC-MS/MS analysis; assay type: ADME, Microsome; conditions: read-out: Stability
[7] = Metabolic stability in human liver microsomes assessed as compound remaining at 1 uM measured after 45 mins in presence of NADPH/UDPGA by LC-MS/MS analysis; assay type: ADME, Microsome; conditions: read-out: Stability
[8] = Metabolic stability in human liver microsomes assessed as hepatic extraction ratio at 1 uM incubated upto 60 mins by LC-MS/MS analysis; assay type: ADME, Microsome; conditions: read-out: ERH
Mus musculus [9] = assay: Effect on blood lipid level in high-fat diet-induced obese C57BL/6 mouse assessed as total cholesterol level at 200 mg/kg, IG for 7 days (reference value: 4.69 mmol/L); assay type: functional; conditions: time 7 day
Mus musculus [10] = assay: Effect on exercise tolerance in normal diet-fed C57BL/6 mouse assessed as total running time at 200 mg/kg, IG for 3 days (reference value: 7002.00 sec); assay type: functional; conditions: time 3 day
[11] = Metabolic stability in human liver microsomes assessed as compound remaining at 1 uM measured after 60 mins in presence of NADPH/UDPGA by LC-MS/MS analysis; assay type: ADME, Microsome; conditions: read-out: Stability
[12] = Metabolic stability in human liver microsomes assessed as half life at 1 uM incubated upto 60 mins by LC-MS/MS analysis; assay type: ADME, Microsome
[13] = Metabolic stability in human liver microsomes assessed as compound remaining at 1 uM measured after 45 mins by LC-MS/MS analysis; assay type: ADME, Microsome; conditions: read-out: Stability
[14] = Metabolic stability in human liver microsomes assessed as intrinsic clearance at 1 uM incubated upto 60 mins by LC-MS/MS analysis; assay type: ADME, Microsome; conditions: read-out: CLH
[15] = Metabolic stability in human liver microsomes assessed as compound remaining at 1 uM measured after 15 mins in presence of NADPH/UDPGA by LC-MS/MS analysis; assay type: ADME, Microsome; conditions: read-out: Stability
[16] = Metabolic stability in human liver microsomes assessed as compound remaining at 1 uM measured after 15 mins by LC-MS/MS analysis; assay type: ADME, Microsome; conditions: read-out: Stability
[17] = Metabolic stability in human liver microsomes assessed as compound remaining at 1 uM measured after 30 mins by LC-MS/MS analysis; assay type: ADME, Microsome; conditions: read-out: Stability
Mus musculus [18] = assay: Effect on blood lipid level in high-fat diet-induced obese C57BL/6 mouse assessed as triglyceride level at 200 mg/kg, IG for 7 days (reference value: 2.07 mmol/L); assay type: functional; conditions: time 7 day
[19] = Metabolic stability in human liver microsomes assessed as compound remaining at 1 uM measured after 30 mins in presence of NADPH/UDPGA by LC-MS/MS analysis; assay type: ADME, Microsome; conditions: read-out: Stability
Mus musculus [20] = assay: Effect on exercise tolerance in normal diet-fed C57BL/6 mouse assessed as total running distance at 200 mg/kg, IG for 3 days (reference value: 2183.20 meter); assay type: functional; conditions: time 3 day
[21] = Metabolic stability in human liver microsomes assessed as compound remaining at 1 uM measured immediately by LC-MS/MS analysis; assay type: ADME, Microsome; conditions: read-out: Stability
[22] = Metabolic stability in human liver microsomes assessed as compound remaining at 1 uM measured after 60 mins by LC-MS/MS analysis; assay type: ADME, Microsome; conditions: read-out: Stability

## O=C(C1CC1)N1CCC(CN(Cc2cc(Cl)cc(Cl)c2)Cc2ccc([N+](=O)[O-])s2)C1 (stereo not drawn)
[1]
  CC50: 12.8 µM
HEK293; filed as agonist
  Ratio: 64.7%

## O=C(C1CC1)N1CCC(CN(Cc2cccc(Cl)c2)Cc2ccc([N+](=O)[O-])s2)C1 (stereo not drawn)
[1]
  CC50: 22.2 µM
HEK293; filed as agonist
  Ratio: 51%

## C=CC(=O)N1CCC(CN(Cc2ccc(F)cc2)Cc2ccc([N+](=O)[O-])s2)C1 (stereo not drawn)
HEK293; filed as agonist
  Ratio: 61.2%

## CC(F)C(=O)N1CCC(CN(Cc2ccc(Cl)cc2)Cc2ccc([N+](=O)[O-])s2)C1 (stereo not drawn)
HEK293; filed as agonist
  Ratio: 85.4%

## O=C(Cc1cccs1)N1CCC(CN(Cc2ccc(Cl)cc2)Cc2ccc([N+](=O)[O-])s2)C1 (stereo not drawn)
Mus musculus [2]
  Time: 3726.88 s
Mus musculus [3]
  Activity: 686.85 m
HEK293; filed as agonist
  Ratio: 121%
[4]
  EC50: 8.88 µM

## O=C(C1CC1)N1CCC(CN(Cc2ccc(Cl)c(Cl)c2)Cc2ccc([N+](=O)[O-])s2)C1 (stereo not drawn)
Mus musculus [5]
  Activity: 6.82 mmol/L
[6]
  remaining at 0 min, 1 µM: 100%
[1]
  CC50: 10.7 µM
[7]
  remaining at 0.75 h, 1 µM: 0.3%
[8]
  hepatic extraction ratio at 1 h, 1 µM: 0.96
Mus musculus [9]
  Activity: 4.5 mmol/L
Mus musculus [10]
  Time: 10034.25 s
[11]
  remaining at 1 h, 1 µM: 0.15%
[12]
  half-life at 1 µM: 3.37 min
Mus musculus [2]
  Time: 5011.38 s
[13]
  remaining at 0.75 h, 1 µM: 93.3%
[14]
  microsomal CLint at 1 µM: 411 µL/min/mg
[15]
  remaining at 0.25 h, 1 µM: 4.6%
[16]
  remaining at 0.25 h, 1 µM: 93.2%
[17]
  remaining at 0.5 h, 1 µM: 108%
Mus musculus [3]
  Activity: 1061.4 m
Mus musculus [18]
  Activity: 1.12 mmol/L
HEK293; filed as agonist
  Ratio: 84.8%
[19]
  remaining at 0.5 h, 1 µM: 0.91%
[4]
  EC50: 5.99 µM
Mus musculus [20]
  Activity: 3115.39 m
[21]
  remaining at 0 min, 1 µM: 100%
[22]
  remaining at 1 h, 1 µM: 90.1%

## CC1CCC(N(Cc2ccc([N+](=O)[O-])s2)CC2CCN(C(=O)OC(C)(C)C)C2)CC1 (stereo not drawn)
HEK293
  Ratio: 26.8%

## O=C(C1CC1)N1CCC(CN(Cc2ccc([N+](=O)[O-])s2)Cc2ccc(F)cc2F)C1 (stereo not drawn)
Mus musculus [5]
  Activity: 6.79 mmol/L
[6]
  remaining at 0 min, 1 µM: 100%
[1]
  CC50: 38.5 µM
[7]
  remaining at 0.75 h, 1 µM: 0.16%
[8]
  hepatic extraction ratio at 1 h, 1 µM: 0.97
Mus musculus [9]
  Activity: 3.83 mmol/L
Mus musculus [10]
  Time: 9087.88 s
[11]
  remaining at 1 h, 1 µM: 0.07%
[12]
  half-life at 1 µM: 2.3 min
Mus musculus [2]
  Time: 5805 s
[13]
  remaining at 0.75 h, 1 µM: 105%
[14]
  microsomal CLint at 1 µM: 601 µL/min/mg
[15]
  remaining at 0.25 h, 1 µM: 1.1%
[16]
  remaining at 0.25 h, 1 µM: 106%
[17]
  remaining at 0.5 h, 1 µM: 103%
Mus musculus [3]
  Activity: 1042.52 m
Mus musculus [18]
  Activity: 1.04 mmol/L
HEK293; filed as agonist
  Ratio: 98.2%
[19]
  remaining at 0.5 h, 1 µM: 0.23%
[4]
  EC50: 4.93 µM
Mus musculus [20]
  Activity: 2843.74 m
[21]
  remaining at 0 min, 1 µM: 100%
[22]
  remaining at 1 h, 1 µM: 108%

## O=C(C1CC1)N1CCC(CN(Cc2cccc(Br)c2)Cc2ccc([N+](=O)[O-])s2)C1 (stereo not drawn)
[1]
  CC50: 15.4 µM
HEK293; filed as agonist
  Ratio: 89.8%

## O=C(CC1CC1)N1CCC(CN(Cc2ccc(Cl)cc2)Cc2ccc([N+](=O)[O-])s2)C1 (stereo not drawn)
HEK293; filed as agonist
  Ratio: 73.2%

## O=C(C1CC1)N1CCC(CN(Cc2ccc3c(c2)OCO3)Cc2ccc([N+](=O)[O-])s2)C1 (stereo not drawn)
[1]
  CC50: 15.4 µM
HEK293; filed as agonist
  Ratio: 70.7%

## O=C(C1CCC1)N1CCC(CN(Cc2ccc(Cl)cc2)Cc2ccc([N+](=O)[O-])s2)C1 (stereo not drawn)
Mus musculus [2]
  Time: 3159 s
Mus musculus [3]
  Activity: 572.8 m
HEK293; filed as agonist
  Ratio: 116%
[4]
  EC50: 9.21 µM

## C=CC(=O)N1CCC(CN(Cc2ccc(Cl)cc2)Cc2ccc([N+](=O)[O-])s2)C1 (stereo not drawn)
Mus musculus [2]
  Time: 4516.75 s
Mus musculus [3]
  Activity: 910.9 m
HEK293; filed as agonist
  Ratio: 125%
[4]
  EC50: 8.65 µM

## O=C(c1ccco1)N1CCC(CN(Cc2ccc(Cl)cc2)Cc2ccc([N+](=O)[O-])s2)C1 (stereo not drawn)
Mus musculus [2]
  Time: 4165.38 s
Mus musculus [3]
  Activity: 836.67 m
HEK293; filed as agonist
  Ratio: 126%
[4]
  EC50: 7.15 µM

## O=C(NS(=O)(=O)N1CCC(CN(Cc2ccc(Cl)cc2)Cc2ccc([N+](=O)[O-])s2)C1)OCC1CC1 (stereo not drawn)
HEK293; filed as agonist
  Ratio: 63%

## CCOC(=O)N1CCC(CN(Cc2ccc(Cl)cc2)Cc2ccc([N+](=O)[O-])s2)C1 (stereo not drawn) [SR9009]
Mus musculus [5]
  Activity: 9.46 mmol/L
[6]
  remaining at 0 min, 1 µM: 100%
[1]
  CC50: 38.5 µM
[7]
  remaining at 0.75 h, 1 µM: 0.08%
[8]
  hepatic extraction ratio at 1 h, 1 µM: 0.97
Mus musculus [9]
  Activity: 4.03 mmol/L
Mus musculus [10]
  Time: 9908.5 s
[11]
  remaining at 1 h, 1 µM: 0.06%
[12]
  half-life at 1 µM: 2.23 min
Mus musculus [2]
  Time: 5428.38 s
[13]
  remaining at 0.75 h, 1 µM: 85.6%
[14]
  microsomal CLint at 1 µM: 622 µL/min/mg
[15]
  remaining at 0.25 h, 1 µM: 0.94%
[16]
  remaining at 0.25 h, 1 µM: 85.6%
[17]
  remaining at 0.5 h, 1 µM: 98.5%
Mus musculus [3]
  Activity: 1177.69 m
Mus musculus [18]
  Activity: 1.07 mmol/L
[19]
  remaining at 0.5 h, 1 µM: 0.04%
[4]
  EC50: 8.57 µM
Mus musculus [20]
  Activity: 3121.42 m
[21]
  remaining at 0 min, 1 µM: 100%
[22]
  remaining at 1 h, 1 µM: 103%

## O=C(c1ccc(Br)o1)N1CCC(CN(Cc2ccc(Cl)cc2)Cc2ccc([N+](=O)[O-])s2)C1 (stereo not drawn)
Mus musculus [2]
  Time: 4130 s
Mus musculus [3]
  Activity: 797.96 m
HEK293; filed as agonist
  Ratio: 120%
[4]
  EC50: 8.29 µM

## O=C(C1CC1)N1CCC(CN(Cc2ccc(Cl)cc2)Cc2ccc([N+](=O)[O-])s2)C1 (stereo not drawn)
HEK293; filed as agonist
  Ratio: 55%

## O=C(NS(=O)(=O)N1CCC(CN(Cc2ccc(Cl)cc2)Cc2ccc([N+](=O)[O-])s2)C1)OCC1CCCC1 (stereo not drawn)
HEK293
  Ratio: 34.3%

## COc1ccc(CN(Cc2ccc([N+](=O)[O-])s2)CC2CCN(C(=O)C3CC3)C2)cc1OC (stereo not drawn)
[1]
  CC50: 32 µM
HEK293; filed as agonist
  Ratio: 43.4%

## COc1cccc(CN(Cc2ccc([N+](=O)[O-])s2)CC2CCN(C(=O)C3CC3)C2)c1 (stereo not drawn)
[1]
  CC50: 15.4 µM
HEK293; filed as agonist
  Ratio: 64.5%

## COc1ccccc1CN(Cc1ccc([N+](=O)[O-])s1)CC1CCN(C(=O)C2CC2)C1 (stereo not drawn)
[1]
  CC50: 38.5 µM
HEK293
  Ratio: 5.77%

## O=C(C1CC1)N1CCC(CN(Cc2ccc([N+](=O)[O-])s2)Cc2c(F)cccc2Cl)C1 (stereo not drawn)
HEK293
  Ratio: 30.2%

## O=C(C1CC1)N1CCC(CN(Cc2ccc([N+](=O)[O-])s2)Cc2ccc(F)cc2Cl)C1 (stereo not drawn)
[1]
  CC50: 38.5 µM
HEK293; filed as agonist
  Ratio: 89.4%
[4]
  EC50: 8.31 µM
